Assays:
Trypanosoma cruzi [1] = test: GSK_TCAKS: pIC50 Trypanosoma cruzi viability assay using beta-GAL activity. This assay was run at single shot at 5uM compound concentration per well. The biological reagents consisted of NIH-3T3 host cells and trypomastigotes parasitic cells; both cell types were set to a 3.3 * 10^5 cells/mL dilution in assay DMEM by means of a CASY cell counter device using a 60um capillary. 6 uL of the mixture were dispensed per well (about 1 * 10^3 host-cells and 1 * 10^3 parasites) with a Multidrop Combi dispenser. […] In all wells, the percentage of DMSO never exceeded 0.5%. Plates incubated for four days at 37C, 5% CO2. The substrate used for the assay fluorescence intensity (FLINT) readout was resorufin-beta-D-galactopiranoside (Sigma-Aldrich) at 5uM per well. It was diluted in PBS supplemented with the soft detergent Igepal (Fluka).; type: functional, organism-based, Mus musculus; conditions: Tulahuen, NIH3T3
[2] = molecular target: Sterol 14-alpha demethylase (Trypanosoma cruzi (strain CL Brener), UniProt Q7Z1V1); test: GSK_TCAKS: pIC50 CYP51 from Trypanosoma cruzi.; type: functional
Sterol 14-alpha demethylase, sequence (Q7Z1V1 whole entry): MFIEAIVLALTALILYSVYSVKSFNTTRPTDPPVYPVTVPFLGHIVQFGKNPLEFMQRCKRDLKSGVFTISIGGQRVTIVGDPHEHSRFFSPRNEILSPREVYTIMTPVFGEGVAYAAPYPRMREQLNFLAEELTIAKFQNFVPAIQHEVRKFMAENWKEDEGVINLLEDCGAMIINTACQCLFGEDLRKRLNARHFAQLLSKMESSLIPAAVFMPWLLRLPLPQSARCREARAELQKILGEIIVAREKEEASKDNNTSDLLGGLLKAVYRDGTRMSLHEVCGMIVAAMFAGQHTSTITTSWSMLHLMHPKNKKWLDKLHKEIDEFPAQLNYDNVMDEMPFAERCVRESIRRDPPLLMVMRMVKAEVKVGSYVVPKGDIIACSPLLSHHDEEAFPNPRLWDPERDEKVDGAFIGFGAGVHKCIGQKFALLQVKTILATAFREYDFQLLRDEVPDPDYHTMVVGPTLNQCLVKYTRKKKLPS

[3] = test system: Trypanosoma brucei brucei; test: GSK_TCAKS: pIC50 Trypanosoma brucei viability assay using fluorescence intensity. Assay plates (1536-well) were prepared by dispensing 25nL of compound solution per well using an Echo acoustic dispenser (Labcyte).; type: functional, organism-based; conditions: Lister 427, 2 h
Leishmania donovani [4] = test: GSK_TCAKS: pIC50 Leishmania donovani Imaging: Infected Macrophages. Assay plates (384-well) were prepared by adding 250nL of compound to each well. For single shot assay, the final compound concentration was 5 uM. […] Automated image analysis was performed with a script developed on Acapella High Content Imaging and Analysis Software (PerkinElmer). Output: Percent of infected macrophage cells were reported for each well.; type: functional, organism-based, Homo sapiens; conditions: THP-1
[5] = test system: Trypanosoma brucei brucei; test: GSK_TCAKS: pIC50 Trypanosoma brucei viability assay using luminiscence. Assay plates (1536-well) were prepared. T. brucei cultures were harvested and counted in a CASY cell counter. A parasite suspension was prepared at a final concentration of 5 * 10^4 cells/mL in complete HMI9 medium and 6uL was dispensed to all wells containing compounds using a Multidrop Combi dispenser. 6uL of HMI9 media with 0.4% DMSO were dispensed to control columns. Plates were incubated for 24 h at 37C, 5% CO2 then tempered for 10 min at room temperature. ATP content was quantified by adding 4 uL of CellTiter-Glo Reagent (Promega) according to the manufacturer's instructions. Luminescence was measured using a ViewLux.; type: functional, organism-based; conditions: Lister 427, CASY
Leishmania donovani [6] = test: GSK_TCAKS: pIC50 Leishmania donovani viability assay using fluorescence intensity. Assay plates (1536-well) were prepared by adding 30nL per well of compound. For single shot assay, the final compound concentration was 5uM. […] Briefly, eGFP LdBOB axenic amastigotes were harvested, fixed and counted in a CASY cell counter (Roche-Applied Science). A final concentration of 1.5 * 10^5 cells per well were prepared in amastigote media containing 500 U/mL penicillin/streptomycin (Invitrogen) and 6uL was dispensed to each experimental well using a Multidrop Combi dispenser (Thermo Scientific). 6uL of assay media was dispensed to control columns used as reference for 100% compound response. Following incubation for 72 h at 37C, 5% CO2, 2 uL of resazurin was added to each well at a final concentration of 0.5 mM in phosphate buffered saline (PBS) with IGEPAL (Sigma-Aldrich), 0.05% (v/v).; type: functional, organism-based
Leishmania donovani [7] = test: GSK_TCAKS: pIC50 Leishmania donovani Imaging: THP-1 Host Macrophages. Assay plates (384-well) were prepared by adding 250nL of compound to each well. For single shot assay, the final compound concentration was 5 uM. […] Automated image analysis was performed with a script developed on Acapella High Content Imaging and Analysis Software (PerkinElmer). Output: THP-1 cell count were reported for each well.; type: functional, organism-based, Homo sapiens
Trypanosoma cruzi [8] = test: (§1) GSK_TCAKS: pIC50 Trypanosoma cruzi Imaging: Amastigotes/Cell. […] Cells were then washed once with PBS before infection. T. cruzi trypomastigotes, collected at days 5 to 8 after infection from LLC-MK2 parasite infected cultures, were allowed to swim out for 4h at 37C from a centrifuged pellet (2,500 rpm/10 min/room temperature). Trypomastigotes were then collected and counted in a CASY Cell Counter. Trypomastigotes, in supplemented DMEM, were added to H9c2 cultures in a multiplicity of infection of 1 and incubated for 18 h. Cells were washed once with PBS before incubation of the infected H9c2 monolayer with trypsin (Life-Technologies) to detach cells from the flask. Cells were counted in a CASY Cell Counter using a 150 um capillary and their density set at 5 * 10^4 cells per mL in supplemented assay DMEM. Infected H9c2 were dispensed into 384-well poly-lysine coated assay plates at 50uL per well using a Multidrop Combi dispenser. After seeding them, the plates were incubated at 37C, 5% CO2 for 72h. Cultures were then fixed and stained by addition of 50 uL of a solution containing 8% formaldehyde and 4 uM DRAQ5 DNA dye (BioStatus, UK) per well. […] Five images were collected per well for reliable statistical analysis. Automated image analysis was performed with a script developed on Acapella High Content Imaging and Analysis Software (PerkinElmer). Output: number of amastigotes per cell as infection level measurement.; type: functional, organism-based, Rattus norvegicus; conditions: H9c2, 4 h
Trypanosoma cruzi [9] = test: as §1, with “H2C9” for “Trypanosoma cruzi”, “H9c2 Host Cardiomyocytes.” for “Amastigotes/Cell.”, “Number” for “number”, “H9c2 Host Cardiomyocytes nuclei to determine drug-related cytotoxicity.” for “amastigotes per cell as infection level measurement.”; type: functional, organism-based, Rattus norvegicus; conditions: H9c2, 4 h
Trypanosoma cruzi [10] = test: GSK_TCAKS: pIC50 Trypanosoma cruzi Imaging: Infected Cells. […] Cells were then washed once with PBS before infection. T. cruzi trypomastigotes, collected at days 5 to 8 after infection from LLC-MK2 parasite infected cultures, were allowed to swim out for 4h at 37C from a centrifuged pellet (2,500 rpm/10 min/room temperature). Trypomastigotes were then collected and counted in a CASY Cell Counter. Trypomastigotes, in supplemented DMEM, were added to H9c2 cultures in a multiplicity of infection of 1 and incubated for 18 h. Cells were washed once with PBS before incubation of the infected H9c2 monolayer with trypsin (Life-Technologies) to detach cells from the flask. Cells were counted in a CASY Cell Counter using a 150 um capillary and their density set at 5 * 10^4 cells per mL in supplemented assay DMEM. Infected H9c2 were dispensed into 384-well poly-lysine coated assay plates at 50uL per well using a Multidrop Combi dispenser. After seeding them, the plates were incubated at 37C, 5% CO2 for 72h. Cultures were then fixed and stained by addition of 50 uL of a solution containing 8% formaldehyde and 4 uM DRAQ5 DNA dye (BioStatus, UK) per well. […] Five images were collected per well for reliable statistical analysis. Automated image analysis was performed with a script developed on Acapella High Content Imaging and Analysis Software (PerkinElmer). Output: percentage of infected cells per well as a second infection marker.; type: functional, organism-based, Rattus norvegicus; conditions: H9c2, 4 h
Leishmania donovani [11] = test: GSK_TCAKS: pIC50 Leishmania donovani Imaging: Amastigotes/Macrophages. Assay plates (384-well) were prepared by adding 250nL of compound to each well. For single shot assay, the final compound concentration was 5 uM. […] Automated image analysis was performed with a script developed on Acapella High Content Imaging and Analysis Software (PerkinElmer). Output: Average number of amastigotes per macrophage cell were reported for each well.; type: functional, organism-based, Homo sapiens; conditions: THP-1
[12] = GSK_TCAKS: pIC50 HepG2 human cell line viability assay using luminiscence. […] Seeding density was checked to ensure that new mono-layers were not more than 50% confluent at the time of harvesting. Cell suspension was added to 500 mL of the same medium at a final density of 1.2 * 10^5 cells/mL. This cell suspension was dispensed (25 uL, 3000 cells per well) into 384-well clear-bottom plates using a Multidrop Combi dispenser. Prior to addition of the cell suspension, the screening compounds (250 nL) were pre-dispensed into the plates with an Echo liquid handler. Plates were incubated for 48 h at 37C, 5% CO2. After incubation, plates equilibrated at room temperature for 30 min before proceeding to develop the luminescent signal. The signal developer, CellTiter-Glo Reagent, was allowed to equilibrate at room temperature for 30 min and added to the plates (25uL per well) using a Multidrop Combi dispenser. Plates were left for 10 min at room temperature for stabilization and then read using a ViewLux.; type: toxicity, cell-based

| Structure (SMILES) | IC50 (Trypanosoma cruzi [1]) | IC50 [2] | IC50 [3] | IC50 (Leishmania donovani [4]) | IC50 [5] | IC50 (Leishmania donovani [6]) | IC50 (Leishmania donovani [7]) | IC50 (Trypanosoma cruzi [8]) | IC50 (Trypanosoma cruzi [9]) | IC50 (Trypanosoma cruzi [10]) | IC50 (Leishmania donovani [11]) | IC50 at 48 h [12] |
| --- | --- | --- | --- | --- | --- | --- | --- | --- | --- | --- | --- | --- |
| Cn1c(CC(=O)NNC(=O)c2ccc3ccccc3n2)nc2ccccc21 | 3.16 µM | 31.6 µM | 7940 nM | 1.26 µM | 6310 nM | 6.31 µM | > 50.1 µM | 6.31 µM | > 50.1 µM | 5.01 µM | 0.794 µM | > 100 µM |
| O=C(NNC(=O)c1ccccn1)c1ccc(-c2ccccc2)cc1 | 1.58 µM | 31.6 µM | 316 nM | 6.31 µM | 631 nM | 3.16 µM | 3.16 µM | 1.26 µM | 2 µM | 1.58 µM | 3.16 µM | > 100 µM |
| COc1ccc(C(=O)Nc2ccc(NC(=O)CO)cc2)cc1 | > 50.1 µM | > 100 µM | 251 nM | > 50.1 µM | 251 nM | > 50.1 µM | 20 µM | > 50.1 µM | > 50.1 µM | > 50.1 µM | > 50.1 µM | > 100 µM |
| CN(C)S(=O)(=O)c1ccc(Cl)c(C(=O)Nc2nc(-c3ccccn3)cs2)c1 | 1.58 µM | 31.6 µM | 501 nM | 10 µM | 398 nM | 2 µM | 6.31 µM | 1.26 µM | 6.31 µM | 2 µM | 5.01 µM | > 100 µM |
| Cc1nc(C(=O)Nc2ccc3c(c2)OCO3)nn1-c1ccc(Cl)cc1 | 6.31 µM | 31.6 µM | > 39800 nM | 2 µM | > 39800 nM | 2.51 µM | 12.6 µM | 1 µM | > 50.1 µM | 1.58 µM | 1.58 µM | > 100 µM |
| Cc1noc(C)c1COc1cccc(C(=O)N=c2[nH]cccc2C)c1 | > 50.1 µM | 50.1 µM | 398 nM | 20 µM | 794 nM | > 50.1 µM | 6.31 µM | 39.8 µM | 2.51 µM | 50.1 µM | 10 µM | > 100 µM |
| Cc1nc(C(=O)Nc2ccc3c(c2)OCO3)nn1-c1ccc(F)cc1 | 3.16 µM | 39.8 µM | > 39800 nM | 7.94 µM | > 39800 nM | 2 µM | > 50.1 µM | 1 µM | > 50.1 µM | 1.26 µM | 2.51 µM | > 100 µM |
| COc1cc(OC)cc(C(NS(=O)(=O)c2ccc(Cl)c(C(F)(F)F)c2)c2nccn2C)c1 (configuration not stated) | 3.98 µM | 31.6 µM | 7940 nM | 6.31 µM | 7940 nM | 10 µM | > 50.1 µM | 3.16 µM | 10 µM | 6.31 µM | 5.01 µM | > 100 µM |
| Cc1ccc(C)c(CN2C(=O)NC3(CCc4ccccc43)C2=O)c1 (configuration not stated) | 25.1 µM | 39.8 µM | 501 nM | > 50.1 µM | 1000 nM | > 50.1 µM | > 50.1 µM | 7.94 µM | > 50.1 µM | 20 µM | 15.8 µM | > 100 µM |
| CCN(CC)c1ccc(S(=O)(=O)N(CC)CC)c2nonc12 | 25.1 µM | 25.1 µM | 25100 nM | 0.398 µM | 25100 nM | 6.31 µM | 15.8 µM | 20 µM | > 50.1 µM | 50.1 µM | 0.126 µM | > 100 µM |
| COc1ccc(OC)c2c(=O)c(Cc3ccccc3)c(C)[nH]c12 | 0.224 µM | > 100 µM | > 39800 nM | 3.98 µM | > 39800 nM | 0.398 µM | > 50.1 µM | 0.126 µM | > 50.1 µM | 0.501 µM | 2.51 µM | > 100 µM |
